One block for each molecule: values may come before it.
Legend:
[1] = biological target: T1, Phosphatidylinositol 4,5-bisphosphate 3-kinase catalytic subunit delta isoform (Homo sapiens, UniProt O00329)
T1 sequence (O00329 whole entry): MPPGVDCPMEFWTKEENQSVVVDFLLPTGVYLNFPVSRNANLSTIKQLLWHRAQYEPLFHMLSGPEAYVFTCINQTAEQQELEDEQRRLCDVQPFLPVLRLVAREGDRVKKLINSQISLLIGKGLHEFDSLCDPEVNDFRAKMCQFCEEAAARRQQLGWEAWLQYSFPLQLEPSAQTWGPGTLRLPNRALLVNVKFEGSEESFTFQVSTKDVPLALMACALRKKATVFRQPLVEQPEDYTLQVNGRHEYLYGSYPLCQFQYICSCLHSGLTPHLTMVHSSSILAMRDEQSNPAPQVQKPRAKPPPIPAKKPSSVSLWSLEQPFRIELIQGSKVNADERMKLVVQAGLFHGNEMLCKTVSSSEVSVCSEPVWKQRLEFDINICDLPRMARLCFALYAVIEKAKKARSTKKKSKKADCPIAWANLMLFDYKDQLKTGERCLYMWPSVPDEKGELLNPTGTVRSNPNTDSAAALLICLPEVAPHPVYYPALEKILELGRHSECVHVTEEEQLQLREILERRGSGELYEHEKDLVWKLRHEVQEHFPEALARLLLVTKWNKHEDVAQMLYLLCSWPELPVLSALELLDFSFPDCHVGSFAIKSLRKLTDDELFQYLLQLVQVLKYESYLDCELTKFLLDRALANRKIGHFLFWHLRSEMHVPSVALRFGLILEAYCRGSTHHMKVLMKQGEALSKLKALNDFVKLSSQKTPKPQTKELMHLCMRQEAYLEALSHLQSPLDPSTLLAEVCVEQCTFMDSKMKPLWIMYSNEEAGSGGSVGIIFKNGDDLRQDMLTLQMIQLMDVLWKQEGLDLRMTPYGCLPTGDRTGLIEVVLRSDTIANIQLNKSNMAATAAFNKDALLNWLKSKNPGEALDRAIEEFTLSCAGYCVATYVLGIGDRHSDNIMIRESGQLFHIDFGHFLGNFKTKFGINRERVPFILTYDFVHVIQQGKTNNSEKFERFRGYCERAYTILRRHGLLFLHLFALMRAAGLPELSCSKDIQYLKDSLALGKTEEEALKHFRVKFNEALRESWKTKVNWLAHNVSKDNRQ

Homo sapiens [2] = species on record: Homo sapiens; assay: Toxicity in healthy human; type: organism-based; conditions: in vivo
Homo sapiens [3] = assay: Toxicity in healthy human administered bid up to 7 days; type: organism-based; conditions: in vivo, 168 h
Homo sapiens [4] = species on record: Homo sapiens; assay: Antitumor activity in Non-Hodgkin Lymphoma patient assessed as clinical response rate at 50 to 350 mg, bid; type: functional
[5] = biological target: T1, Phosphatidylinositol 4,5-bisphosphate 3-kinase catalytic subunit delta isoform; assay: Inhibition of PI3Kdelta-mediated AKT phosphorylation in human Ramos cells by ELISA; type: cell-based
[6] = biological target: T2, Phosphatidylinositol 4,5-bisphosphate 3-kinase catalytic subunit gamma isoform (Homo sapiens, UniProt P48736); assay: Inhibition of PI3Kgamma-mediated Akt phosphorylation in T cells by flow cytometry; type: cell-based, T-cell
Target sequence in this assay (P48736 whole entry, canonical isoform): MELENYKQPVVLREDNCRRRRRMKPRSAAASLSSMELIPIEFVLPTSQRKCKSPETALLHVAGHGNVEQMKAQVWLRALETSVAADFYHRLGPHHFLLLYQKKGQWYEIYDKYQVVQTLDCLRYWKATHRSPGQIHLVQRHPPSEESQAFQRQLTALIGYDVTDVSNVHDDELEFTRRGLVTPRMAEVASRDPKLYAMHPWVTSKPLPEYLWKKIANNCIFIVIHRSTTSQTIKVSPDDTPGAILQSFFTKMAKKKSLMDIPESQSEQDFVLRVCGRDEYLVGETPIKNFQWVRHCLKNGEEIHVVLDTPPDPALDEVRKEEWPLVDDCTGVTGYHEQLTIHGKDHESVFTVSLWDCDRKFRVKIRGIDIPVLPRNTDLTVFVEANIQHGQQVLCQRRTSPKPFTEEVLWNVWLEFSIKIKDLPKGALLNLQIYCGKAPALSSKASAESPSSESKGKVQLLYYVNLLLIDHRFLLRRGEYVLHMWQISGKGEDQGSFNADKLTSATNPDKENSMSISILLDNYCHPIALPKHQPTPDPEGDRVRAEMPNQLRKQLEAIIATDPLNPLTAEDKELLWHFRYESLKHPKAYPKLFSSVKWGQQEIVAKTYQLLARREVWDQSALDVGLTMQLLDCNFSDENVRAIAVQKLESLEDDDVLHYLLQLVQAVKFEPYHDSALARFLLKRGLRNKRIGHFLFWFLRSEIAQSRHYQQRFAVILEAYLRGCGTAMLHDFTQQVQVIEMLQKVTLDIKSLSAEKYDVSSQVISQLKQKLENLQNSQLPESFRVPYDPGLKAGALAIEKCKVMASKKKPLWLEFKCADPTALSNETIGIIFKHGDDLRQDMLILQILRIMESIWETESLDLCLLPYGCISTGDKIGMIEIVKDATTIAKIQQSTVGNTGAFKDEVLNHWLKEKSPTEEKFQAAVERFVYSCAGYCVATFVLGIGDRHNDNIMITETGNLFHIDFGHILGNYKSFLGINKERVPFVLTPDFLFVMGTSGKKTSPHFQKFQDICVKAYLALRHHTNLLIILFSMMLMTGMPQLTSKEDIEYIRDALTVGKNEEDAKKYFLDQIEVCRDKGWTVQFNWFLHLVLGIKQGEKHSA

[7] = Oral bioavailability in Han-Wistar rat; type: ADME, organism-based; conditions: in vivo
[8] = biological target: T1, Phosphatidylinositol 4,5-bisphosphate 3-kinase catalytic subunit delta isoform; assay: Inhibition of PI3Kdelta in neutrophil assessed as inhibition of superoxide production by cell-based assay
[9] = Clearance in Han-Wistar rat; type: ADME, organism-based; conditions: in vivo
[10] = biological target: Phosphatidylinositol 4,5-bisphosphate 3-kinase catalytic subunit alpha isoform (Homo sapiens) (UniProt P42336); assay: Inhibition of PI3Kalpha at 1 uM
Phosphatidylinositol 4,5-bisphosphate 3-kinase catalytic subunit alpha isoform (Homo sapiens), sequence (P42336 whole entry, canonical isoform): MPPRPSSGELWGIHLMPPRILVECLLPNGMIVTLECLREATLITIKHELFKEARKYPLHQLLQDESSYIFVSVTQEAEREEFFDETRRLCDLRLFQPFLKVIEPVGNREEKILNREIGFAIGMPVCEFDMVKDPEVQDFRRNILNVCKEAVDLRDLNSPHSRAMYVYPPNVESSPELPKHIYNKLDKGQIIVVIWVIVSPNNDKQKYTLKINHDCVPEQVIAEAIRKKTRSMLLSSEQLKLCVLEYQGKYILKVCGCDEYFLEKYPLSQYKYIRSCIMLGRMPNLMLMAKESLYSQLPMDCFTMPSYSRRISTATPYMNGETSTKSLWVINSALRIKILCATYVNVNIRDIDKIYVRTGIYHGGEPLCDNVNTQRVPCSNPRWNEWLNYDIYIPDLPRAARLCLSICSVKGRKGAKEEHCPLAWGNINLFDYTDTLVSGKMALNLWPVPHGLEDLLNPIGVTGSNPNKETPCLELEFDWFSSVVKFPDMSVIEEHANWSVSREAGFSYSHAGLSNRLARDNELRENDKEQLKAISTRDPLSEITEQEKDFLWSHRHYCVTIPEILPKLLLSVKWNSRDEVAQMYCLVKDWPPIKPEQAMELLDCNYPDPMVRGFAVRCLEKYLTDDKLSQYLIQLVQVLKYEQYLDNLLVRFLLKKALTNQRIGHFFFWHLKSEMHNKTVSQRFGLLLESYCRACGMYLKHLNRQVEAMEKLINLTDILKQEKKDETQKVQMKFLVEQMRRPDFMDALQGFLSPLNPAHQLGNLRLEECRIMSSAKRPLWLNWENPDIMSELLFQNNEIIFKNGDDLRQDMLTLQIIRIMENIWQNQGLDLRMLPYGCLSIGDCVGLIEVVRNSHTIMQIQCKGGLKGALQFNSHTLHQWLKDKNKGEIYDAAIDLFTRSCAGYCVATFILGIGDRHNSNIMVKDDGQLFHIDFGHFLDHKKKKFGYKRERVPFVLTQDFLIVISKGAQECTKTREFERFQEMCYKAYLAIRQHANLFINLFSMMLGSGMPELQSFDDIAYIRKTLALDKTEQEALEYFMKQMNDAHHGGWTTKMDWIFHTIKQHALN

[11] = biological target: T2, Phosphatidylinositol 4,5-bisphosphate 3-kinase catalytic subunit gamma isoform; assay: Inhibition of PI3Kgamma at 1 uM
Target sequence in this assay (P48736 whole entry, looked up, canonical isoform): as the sequence (P48736 whole entry, canonical isoform) above

[12] = biological target: Phosphatidylinositol 4,5-bisphosphate 3-kinase catalytic subunit beta isoform (Homo sapiens) (UniProt P42338); assay: Inhibition of PI3Kbeta at 1 uM
Phosphatidylinositol 4,5-bisphosphate 3-kinase catalytic subunit beta isoform (Homo sapiens), sequence (P42338 whole entry, looked up, canonical isoform): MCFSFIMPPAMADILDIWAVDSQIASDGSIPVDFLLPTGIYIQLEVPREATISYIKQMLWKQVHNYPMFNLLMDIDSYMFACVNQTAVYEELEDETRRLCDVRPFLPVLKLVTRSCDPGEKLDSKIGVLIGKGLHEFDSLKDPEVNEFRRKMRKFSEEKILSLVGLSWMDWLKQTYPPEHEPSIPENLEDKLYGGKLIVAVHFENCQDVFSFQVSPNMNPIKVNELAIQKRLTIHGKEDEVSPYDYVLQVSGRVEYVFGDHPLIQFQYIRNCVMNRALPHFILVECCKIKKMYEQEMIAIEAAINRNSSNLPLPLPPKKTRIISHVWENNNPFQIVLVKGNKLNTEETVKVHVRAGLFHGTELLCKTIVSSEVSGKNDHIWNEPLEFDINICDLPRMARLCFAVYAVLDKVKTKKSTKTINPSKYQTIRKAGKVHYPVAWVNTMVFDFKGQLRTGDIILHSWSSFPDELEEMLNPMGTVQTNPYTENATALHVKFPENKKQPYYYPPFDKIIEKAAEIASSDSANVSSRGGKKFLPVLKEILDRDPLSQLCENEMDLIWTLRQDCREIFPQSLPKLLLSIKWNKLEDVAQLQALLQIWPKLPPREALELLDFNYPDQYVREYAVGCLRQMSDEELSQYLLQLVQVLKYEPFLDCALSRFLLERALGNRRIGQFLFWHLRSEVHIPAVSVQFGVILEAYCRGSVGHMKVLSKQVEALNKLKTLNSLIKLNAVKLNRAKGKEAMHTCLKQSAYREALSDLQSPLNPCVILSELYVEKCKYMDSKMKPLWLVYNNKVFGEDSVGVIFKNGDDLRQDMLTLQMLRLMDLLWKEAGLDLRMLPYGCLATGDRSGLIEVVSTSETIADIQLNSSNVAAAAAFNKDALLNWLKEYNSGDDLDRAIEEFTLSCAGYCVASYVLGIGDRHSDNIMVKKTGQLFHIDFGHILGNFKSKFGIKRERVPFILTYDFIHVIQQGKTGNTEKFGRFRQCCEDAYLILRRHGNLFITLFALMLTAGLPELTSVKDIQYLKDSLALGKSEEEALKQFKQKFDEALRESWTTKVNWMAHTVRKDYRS

Structure (SMILES): CC(=O)Nc1ccc(C(=O)NC2=Nc3cc(N4CCOCC4)ccc3C3=NCCN23)cn1
- IC50 ([1]; read-out: IC50): < 100 nM

Structure (SMILES): CC[C@H](Nc1ncnc2[nH]cnc12)c1nc2cccc(F)c2c(=O)n1-c1ccccc1 [IDELALISIB]
- MTD (Homo sapiens [2]): 400 mg
- MTD (Homo sapiens [3]): 200 mg
- Activity (Homo sapiens [4]): 56%

Structure (SMILES): CC(Nc1ncnc2[nH]cnc12)c1cc(Cl)c2cncn2c1-c1cccc(F)c1 (stereo unspecified)
- IC50 [5]: < 100 nM
- IC50 ([1]; read-out: IC50): < 100 nM

Structure (SMILES): COc1ccc(NC(=O)c2c(C)oc3ncn(CC(C)C)c(=O)c23)cc1
- IC50 ([1]; read-out: IC50): 5.9 nM

Structure (SMILES): CC(=O)NCCNS(=O)(=O)c1ccc(-c2sc(NC(C)=O)nc2C)o1
- Ki [1]: 100 nM

Structure (SMILES): Cc1oc2ncn(CC(C)C)c(=O)c2c1C(=O)NCc1ccccc1
- IC50 ([1]; read-out: IC50): 2100 nM

Structure (SMILES): CC(Nc1ncnc2[nH]cnc12)c1c(C#N)c2ccc(Cl)cc2n1-c1cccc(F)c1 (stereo unspecified)
- IC50 ([1]; read-out: IC50): < 50 nM

Structure (SMILES): CCN(CC)C(=O)c1cccc(Nc2nc3ccc(-c4cncc(OC)c4)cc3s2)n1
- Ki [1]: 3 nM

Structure (SMILES): C[C@@H]1CN(Cc2nnc(-c3cc(-c4cccc5[nH]ccc45)cc4[nH]ncc34)o2)C[C@H](C)O1
- pIC50 [1]: >= 5

Structure (SMILES): Cc1nc(NC(=O)NCCC(=O)OC(C)(C)C)sc1-c1ccc(S(C)(=O)=O)c(F)c1
- IC50 ([1]; read-out: IC50): 16 nM

Structure (SMILES): Cc1ccc(-c2ccc3c(c2)N(C2=NC4CC(C)(C)NC(=O)C4S2)CCO3)nn1 (stereo unspecified)
- bioavailability [7]: 66%

Structure (SMILES): CS(=O)(=O)N1CCN(Cc2cc3nc(-c4c(F)ccc5[nH]ccc45)nc(N4CCOCC4)c3s2)CC1
- IC50 ([1]; read-out: IC50): < 100 nM

Structure (SMILES): CCOC(=O)CCNC(=O)Nc1nc2c(s1)CN(c1cnc(Cl)c(OC)c1)CC2
- Ki [1]: 3 nM

The remaining lines, values ahead:

- IC50 ([1]; read-out: IC50): < 50 nM
Structure (SMILES): Cn1c(C(=O)NCC(F)(F)F)nc2c(N3CCC(n4c(=O)[nH]c5ncccc54)CC3)ncnc21

- IC50 ([1]; read-out: pIC50 (converted)): < 100 nM
Structure (SMILES): CC(C)N1CCN(Cc2cnc(-c3cc(-c4cccc5[nH]ccc45)cc4[nH]ncc34)o2)CC1 [NEMIRALISIB]

- IC50 ([1]; read-out: IC50): < 50 nM
Structure (SMILES): Cc1cccc2cc(Cn3cnc4c(N)ncnc43)c(N(C)CC3CCCN3C)nc12 (stereo unspecified)

- IC50 ([1]; read-out: pIC50 (converted)): < 100 nM
Structure (SMILES): COc1ccc(-c2cc(-c3ncc(CN4C[C@@H](C)O[C@@H](C)C4)o3)c3cn[nH]c3c2)cc1NS(C)(=O)=O

- IC50 ([1]; read-out: IC50): 40 nM
Structure (SMILES): C[C@@H](c1nc2ccsc2c(=O)n1-c1ccccc1)n1cnc2c(N)ncnc21

- IC50 ([1]; read-out: IC50): < 100 nM
Structure (SMILES): CC[C@H]1CN(c2sc(-c3nnc[nH]3)c(-c3ccc(Cl)cc3Cl)c2C#N)CCO1

- IC50 ([1]; read-out: IC50): 13 nM
Structure (SMILES): CC(=O)Nc1nc(C)c(-c2csc(C(=O)Nc3nnn[nH]3)n2)s1

- Ki [1]: 2.85 nM
Structure (SMILES): Cc1c(-c2ccccn2)nc2cc(F)cc(F)c2c1Nc1cc(N2CCOCC2)cnc1-c1ccc(O)cc1

- IC50 [6]: ≤ 1000 nM
- pIC50 [1]: >= 5
Structure (SMILES): Cc1nc(C(=O)Nc2cc(-c3ccnc4[nH]ccc34)cc3[nH]ncc23)cs1

- bioavailability [7]: 97%
- IC50 [8]: 111 nM
- clearance [9]: 7 mL/min/kg
Structure (SMILES): Cn1cc(-c2ccc3c(c2)N(C2=NC4CC(C)(C)NC(=O)C4S2)CCO3)cn1 (stereo unspecified)

- IC50 ([1]; read-out: IC50): < 600 nM
Structure (SMILES): CC(=O)Nc1nc2c(s1)-c1c(c(C3CC3)nn1C1CCC(C(=O)N[C@H]3CC[C@H](N4CCCC4)CC3)CC1)CC2 (stereo partly specified)

- Ki [1]: 10 nM
Structure (SMILES): CCNC(=O)Nc1nc2ccc(-c3cncc(C(F)(F)F)c3)cc2s1

- inhibition [10]: < 25%
- inhibition [11]: < 25%
- inhibition [12]: < 25%
- IC50 ([1]; read-out: IC50): < 250 nM
Structure (SMILES): CC(c1oc2ccccc2c(=O)c1-c1cccc(F)c1)n1cnc2c(N)ncnc21 (stereo unspecified)

- IC50 ([1]; read-out: IC50): 27 nM
Structure (SMILES): COc1ccc(-c2ccc3c(n2)N(C2=NC(=O)C(C)(C)S2)CCO3)cc1OC
